These results are taken from US8048928B2, “Therapeutic agent for treating liver disease containing 2-amino-1,3-propanediol derivative as active ingredient, and method for treating liver disease” (Kyorin Pharmaceutical Co., Ltd., priority 2005, dated 2011).

The structures appear in SMILES notation. Structures can show the parent of a compound that is named as a salt.

The assay deals with Con A-induced hepatitis model. The experiment in a line: Con A-induced hepatitis model: liver-infiltrating cells counted with FACS Calibur. The class given is in vivo, Male BALB/c mice. As for the experimental part:
Male BALB/c mice, aged 8 to 12 weeks, were purchased from Charles River, Japan. Concanavalin A (referred to as “Con A,” hereinafter) was dissolved in phosphate-buffered saline (PBS). 0.2 ml of this solution was intravenously administered to the animals to deliver 40 mg/kg of Con A. KRP-203 suspended in distilled water was orally administered at a dose of 0.1 mg/10 g body weight 24 hours before the administration of Con A. The animals were sacrificed 24 hours after the administration of Con A and the serum transaminase activity was measured. Also, the liver was perfused with 30 mL 0.1% EDTA-PBS to collect liver infiltrate (Eur. J. Immunol., 17: 37, 1987). To avoid contamination with lymphocytes in the periphery blood, the first 2.5 ml of the collected 0.1% EDTA-PBS was discarded. The collected cells were stained with anti-CD4 antibody, anti-CD8 antibody, anti-CD3 antibody, anti-CD45/B220 antibody, anti-CD11b antibody, anti-Ly-49C antibody and were counted with FACS Calibur.

Setting [1] is: KRP-203 1 mg/kg oral 24 h before Con A 40 mg/kg i.v., 24 h after Con A.

On to `NC(CO)(CO)CCc1ccc(Sc2cccc(OCc3ccccc3)c2)cc1Cl` [KRP-203, 2-amino-2-[4-(3-benzyloxyphenylthio)-2-chlorophenyl]ethyl-1,3-propanediol hydrochloride], for which, under setting [1], the “Number of cells that infiltrated the liver: B220^+” value is on record as 2.06 ± 0.21 ×10^5, the “Number of cells that infiltrated the liver: CD3^+ NK−” value was 2.29 ± 0.53 ×10^5, the “Number of cells that infiltrated the liver: CD4^+” value is given as 0.93 ± 0.33 ×10^5 and the “Number of cells that infiltrated the liver: CD8^+” value is recorded as 2.53 ± 0.64 ×10^5. Also, under setting [1], the “Number of cells that infiltrated the liver: CD11b^+” value is on record as 8.47 ± 2.75 ×10^5, the “Number of cells that infiltrated the liver: NK^+ CD3−” value is 0.40 ± 0.24 ×10^5 and the “Number of cells that infiltrated the liver: Total cells” value was 16.3 ± 3.5 ×10^5. The “Decrease of total number of infiltrated cells in the liver” value (group receiving KRP-203 (1 mg/kg) vs control) is given as “about 50%”.
